Earlier results, collected in patent US7211274B2, “Hair growth formulation” (Hovis SDN BHD, priority 2002, dated 2007).

Settings: reported

Row | Substance | Half life in humans
1 | tocopherols | about 20 hours
2 | tocotrienols | 2 to 4 h
